In patent US10124065B2, “Lipids and lipid compositions for the delivery of active agents” (Novartis AG, priority 2013, dated 2018):

Experiments:
[1] = Particle size of lipid nanoparticle (dynamic light scattering, Malvern Zetasizer); assay type: physicochemical
Description: The lipid nanoparticles have a size of about 1 to about 2,500 nm, about 1 to about 1,500 nm, about 1 to about 1,000 nm, in a sub-embodiment about 50 to about 600 nm, in a sub-embodiment about 50 to about 400 nm, in a sub-embodiment about 50 to about 250 nm, and in a sub-embodiment about 50 to about 150 nm. Unless indicated otherwise, all sizes referred to herein are the average sizes (diameters) of the fully formed nanoparticle, as measured by dynamic light scattering on a Malvern Zetasizer. The nanoparticle sample is diluted in phosphate buffered saline (PBS) so that the count rate is approximately 200-400 kcts. The data is presented as a weighted average of the intensity measure. Unless indicated otherwise, all particle size measurements referred to in Tables 4 and 5 are the Z-average particle size of the fully formed nanoparticle, as measured by dynamic light scattering on a Malvern Zetasizer. The nanoparticle sample was diluted in phosphate buffered saline (PBS) so that the count rate is approximately 200-400 kcts.

[2] = Polydispersity index (PDI) of lipid nanoparticle (dynamic light scattering); assay type: physicochemical
Method: Unless indicated otherwise, all PDIs referred to herein are the PDI of the fully formed nanoparticle, as measured by dynamic light scattering on a Malvern Zetasizer. The nanoparticle sample was diluted in phosphate buffered saline (PBS) so that the count rate was approximately 200-400 kcts. The data is presented in Tables 4 and 5 as a weighted average of the intensity measure.

[3] = tested on: plasma Factor VII enzyme activity; assay: Mouse Factor VII dosing / Factor VII Activity Assay; assay type: in vivo; details: percent knock down of plasma Factor VII activity, CD-1 mice, 48 h
Summary of the method: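 Female CD-1 mice (~25 g) received a single IV tail-vein dose of lipid-nanoparticle-formulated Factor VII siRNA (0.3 or 0.03 mg/kg). Plasma taken ~48 h later; FVII activity measured chromogenically against vehicle-control plasma standard curve, reported as % knockdown.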

PLK-1 mRNA = assay: LS411N Xenograft Assay; assay type: in vivo, Nu/Nu mice; details: percent knock down of PLK-1 mRNA vs control in LS411N tumors, IV 3 mg/kg daily for three days
Method: Female Nu/Nu mice (6-8 weeks old) were implanted subcutaneously with 5×10^6 LS411N cells. Tumor growth was monitored by caliper measurement before treatment initiation. Mice bearing 150-250 mm^3 subcutaneous tumors were randomized and enrolled in the study. The stock siRNA formulations were diluted to […] with PBS for dosing. Animals enrolled in different groups received a single daily bolus IV injection of 3 mg/kg siRNA for three days. Tumors were harvested 24 hours post last injection to assess target gene regulation by qRT-PCR.
Lipid nanoparticles comprising lipid compounds of formula (I) and the PLK1-424 siRNA duplex sequence listed above were tested in the LS411N Xenograft Assay. The results of this assay are given in Table 5 below as a percent knock down of PLK-1 mRNA as compared to the control when administered as a single daily dose for three days at a dose of 3 mg/kg.

[4] = FVII siRNA LNP, Chol/DSPC/S010, molar ratio 45/44/9/2, Z-average
[5] = PLK1-424 siRNA LNP, Chol/DSPC/S010 45/44/9/2
[6] = FVII siRNA LNP, Chol/DSPC/S010, molar ratio 45/44/9/2
[7] = PLK1-424 siRNA LNP, Chol/DSPC/PEG-DSG 45/44/9/2

SMILES | Size (nm) ([1]; FVII siRNA LNP, Chol/DSPC/PEG-DMG, molar ratio 45/44/9/2, Z-average) | Size (nm) [1, 4] [nm] | Size (nm) [1, 5] [nm] | PDI ([2]; FVII siRNA LNP, Chol/DSPC/PEG-DMG, molar ratio 45/44/9/2) | PDI [2, 6] | PDI [2, 5] | KD FVII 0.3 mg/kg ([3]; single IV dose 0.3 mg/kg, LNP Chol/DSPC/PEG-DMG 45/44/9/2) [%] | LS411 KD 3 × 3 mg/Kg (PLK-1 mRNA; LNP Chol/DSPC/S010 45/44/9/2) [%] | Size (nm) [1, 7] [nm] | PDI [2, 7] | KD FVII 0.03 mg/kg ([3]; single IV dose 0.03 mg/kg, LNP Chol/DSPC/S010 45/44/9/2) [%] | LS411 KD 3 × 3 mg/Kg (PLK-1 mRNA; LNP Chol/DSPC/PEG-DSG 45/44/9/2) [%]
CCCCCCCC(=O)OCC(CCOc1cc(CN(C)C)cc(OCCC(COC(=O)CCCCCCC)OC(=O)CCCCCCC)c1)OC(=O)CCCCCCC (centres unmarked) [Example 91, 4,4′-((5-((dimethylamino)methyl)-1,3-phenylene)bis(oxy))bis(butane-1,2-diyl)tetraoctanoate] | 124.3 | 111.9 | 136.1 | 0.06 | 0.053 | 0.032 | 99.0 | 45 | – | – | – | –
CCCCC/C=C\C/C=C\CCCCCCCC(=O)OCCCCOc1cc(CN(C)C)cc(OCCCCOC(=O)CCCCCCC/C=C\CCCCCCCC)c1 [Example 63, (9Z,12Z)-4-(3-((dimethylamino)methyl)-5-(4-(oleoyloxy)butoxy)phenoxy)butyl octadeca-9,12-dienoate] | – | 91.66 | – | – | 0.057 | – | – | – | 108.6 | 0.047 | 75 | 66
